test system: luciferase reporter construct containing a UGA premature termination codon stably transfected in 293T Human Embryonic Kidney cells; assay: cell-based luciferase reporter assay (nonsense suppression); set-up: key: Compounds which were found to have either or both very high potency and very high efficacy of protein synthesis are classified as “***”; Compounds which were found to have significant potency and/or efficacy of protein synthesis were classified as “**”; compounds which were found to have potency and/or efficacy of protein synthesis were classified as “*”; conditions: UGA premature termination codon luciferase reporter in 293T cells; gentamicin internal standard; qualitative potency/efficacy of protein synthesis
Method: Activity measurements in Table 1 were performed in a cell-based luciferase reporter assay (as described in Section 4.2) comprising a luciferase reporter construct containing a UGA premature termination codon that was stably transfected in 293T Human Embryonic Kidney cells. Gentamicin, a small molecule known to allow readthrough of premature termination codons, was used as an internal standard. Activity measurements are based on the qualitative ratio between the minimum concentration of compound required to produce a given protein in a cell versus the amount of protein produced by the cell at that concentration.
The test compounds identified in the nonsense suppression assay (for convenience referred to herein as a compound of the invention) can be tested for biological activity using host cells containing or engineered to contain the target RNA element coupled to a functional readout system. For example, the lead compound can be tested in a host cell engineered to contain the RNA with the premature translation termination codon controlling the expression of a reporter gene. In this example, the lead compounds are assayed in the presence or absence of the RNA with the premature translation termination codon. Compounds that modulate premature translation termination and/or nonsense-mediated mRNA decay in vivo will result in increased expression of the full-length gene, i.e., past the premature termination codon. Alternatively, a phenotypic or physiological readout can be used to assess activity of the target RNA with the premature translation termination codon in the presence and absence of the lead compound. Both the in vitro and in vivo nonsense suppression assays used herein and as described in International Patent Publication WO 01/44516, which is incorporated by reference herein in its entirety, can be used to identify lead compounds and can also be used to determine an EC50 for the lead compounds.
A stable cell line harboring the UGA nonsense-containing luciferase gene is treated with a test compound. Cells are grown in standard medium supplemented with 1% penicillin-streptomycin (P/S) and 10% fetal bovine serum (FBS) to 70% confluency and split 1:1 the day before treatment. The next day, cells are trypsinized and 40,000 cells are added to each well of a 96-well tissue culture dish. Serial dilutions of each compound are prepared to generate a six-point dose response curve spanning 2 logs (30 μM to 0.3 μM). The final concentration of the DMSO solvent remains constant at 1% in each well. Cells treated with 1% DMSO serve as the background standard, and cells treated with gentamicin serve as a positive control.

Structure (SMILES)	Activity
O=[N+]([O-])c1c(NCCO)ncnc1N[C@@H]1O[C@H](CO)[C@@H](O)[C@H]1O [Compound 13, 6-(2-hydroxy-ethylamino)-5-nitro-4-(β-D-ribo-furanosylamino)pyrimidine]	0
CNc1ncnc(N[C@@H]2O[C@H](CO)[C@@H](O)[C@H]2O)c1[N+](=O)[O-] [Compound 2, 6-(N-methylamino)-5-nitro-4-(β-D-ribo-furanosylamino)pyrimidine]	**
Nc1ncnc(N[C@@H]2O[C@H](CO)[C@H](O)[C@H]2O)c1[N+](=O)[O-] [Compound 18, 6-amino-5-nitro-4-(β-D-xylofuranosylamino)-pyrimidine]	0
CC(=O)OC[C@H]1O[C@@H](Nc2ncnc(N)c2[N+](=O)[O-])[C@H](O)[C@@H]1O [Compound 23, 6-Amino-5-nitro-4-[(5-O-acetyl-β-D-ribofuranosyl)amino]pyrimidine]	***
Nc1ncnc(N[C@@H]2O[C@H](COC(=O)c3ccccc3)C(OC(=O)c3ccccc3)C2OC(=O)c2ccccc2)c1[N+](=O)[O-] (stereo in doubt) [Compound 24, 6-Amino-5-nitro-4-[(2,3,5-tri-O-benzoyl-β-D-ribofuranosyl)amino]pyrimidine]	**
Nc1ncnc(NC2O[C@H](CO)[C@@H](O)[C@H]2O)c1[N+](=O)[O-] (stereo in doubt) [Compound 22, 6-amino-5-nitro-4-(α-D-ribofuranosylamino)-pyrimidine]	***
COc1ccc([N+](=O)[O-])c(N[C@@H]2O[C@H](CO)[C@@H](O)[C@H]2O)n1 [Compound 8, 6-methoxy-3-nitro-2-(β-D-ribofuranosyl-amino)pyridine]	0
Cc1cc(N[C@@H]2O[C@H](CO)[C@@H](O)[C@H]2O)ncc1[N+](=O)[O-] [Compound 11, 5-nitro-4-methyl-2-(β-D-ribofuranosyl-amino)pyridine]	*
Nc1ncnc(N[C@H]2C[C@@H](CO)[C@H](O)[C@@H]2O)c1[N+](=O)[O-] [Compound 7, (1S,2R,3S,5S)-3-(6-Amino-5-nitro-pyrimidin-4-ylamino)-5-hydroxymethyl-cyclopentane-1,2-diol]	0
COC(=O)c1c(N)ncnc1N[C@@H]1O[C@H](CO)[C@@H](O)[C@H]1O [Compound 25, Methyl 6-amino-4-(β-D-ribofuranosylamino)pyrimidine-5-carboxylate]	*
COc1ccc(CNc2ncnc(N[C@@H]3O[C@H](CO)[C@@H](O)[C@H]3O)c2C#N)cc1 [Compound 15, 6-(4-methoxy-benzylamino)-5-cyano-4-(β-D-ribo-furanosylamino)pyrimidine]	0
O=[N+]([O-])c1ccc(N[C@@H]2O[C@H](CO)[C@@H](O)[C@H]2O)nc1 [Compound 5, 5-Nitro-2-(β-D-ribofuranosyl-amino)pyridine]	*
N#Cc1cccnc1N[C@@H]1O[C@H](CO)[C@@H](O)[C@H]1O [Compound 16, 3-cyano-2-(β-D-ribofuranosyl-amino)pyridine]	*
CN(C)c1ncnc(N[C@@H]2O[C@H](CO)[C@@H](O)[C@H]2O)c1[N+](=O)[O-] [Compound 9, 6-(dimethylamino)-5-nitro-4-(β-D-ribo-furanosylamino)pyrimidine]	0
Nc1ncnc(N[C@@H]2C[C@H](CO)[C@@H](O)[C@H]2O)c1[N+](=O)[O-] [Compound 6, (1R,2S,3R,5R)-3-(6-Amino-5-nitro-pyrimidin-4-ylamino)-5-hydroxymethyl-cyclopentane-1,2-diol]	0
O=[N+]([O-])c1cccnc1N[C@@H]1O[C@H](CO)[C@@H](O)[C@H]1O [Compound 4, 3-Nitro-2-(β-D-ribofuranosyl-amino)pyridine]	***
O=[N+]([O-])c1c(O)ncnc1N[C@@H]1O[C@H](CO)[C@@H](O)[C@H]1O [Compound 17, 6-hydroxy-5-nitro-4-(β-D-ribofuranosylamino)pyrimidine]	*
Nc1ncnc(N[C@H]2O[C@@H](CO)[C@H](O)[C@@H]2O)c1[N+](=O)[O-] [Compound 19, 6-amino-5-nitro-4-(β-L-ribofuranosylamino)-pyrimidine]	**
COC(=O)c1c(Cl)ncnc1N[C@H]1O[C@H](CO)[C@@H](O)[C@H]1O [Compound 28, Methyl 6-chloro-4-(α-D-ribofuranosylamino)pyrimidine-5-carboxylate]	0
CCNc1ncnc(N[C@@H]2O[C@H](CO)[C@@H](O)[C@H]2O)c1[N+](=O)[O-] [Compound 14, 6-(ethylamino)-5-nitro-4-(β-D-ribo-furanosylamino)pyrimidine]	0
CC1(C)O[C@@H]2[C@H](O1)[C@@H](CO)O[C@H]2Nc1ncnc(N)c1[N+](=O)[O-] [Compound 12, 6-amino-5-nitro-4-(2,3-O-isopropylidene-β-D-ribofuranosylamino)pyrimidine]	0
Nc1ncnc(N[C@@H]2O[C@H](CF)[C@@H](O)[C@H]2O)c1[N+](=O)[O-] [Compound 20, 6-amino-5-nitro-4-(5-deoxy-5-fluoro-β-D-ribofuranosylamino)-pyrimidine]	*
COC(=O)c1c(N)ncnc1N[C@H]1O[C@H](CO)[C@@H](O)[C@H]1O [Compound 27, Methyl 6-amino-4-(α-D-ribofuranosylamino)pyrimidine-5-carboxylate]	*
[N-]=[N+]=NC[C@H]1O[C@@H](Nc2ncnc(N)c2[N+](=O)[O-])[C@H](O)[C@@H]1O [Compound 21, 6-amino-5-nitro-4-(5-deoxy-5-azido-β-D-ribofuranosylamino)-pyrimidine]	*
CSc1ncnc(N[C@@H]2O[C@H](CO)[C@@H](O)[C@H]2O)c1[N+](=O)[O-] [Compound 10, 6-(thiomethyl)-5-nitro-4-(β-D-ribo-furanosylamino)pyrimidine]	*
Nc1ncnc(N[C@@H]2O[C@H](CO)[C@@H](O)[C@H]2O)c1N [Compound 3, 5,6-Diamino-4-(β-D-ribofuranosyl-amino)pyrimidine]	*

From patent US7291603B2, “Nucleoside compounds and their use for treating cancer and diseases associated with somatic mutations” (PTC Therapeutics, Inc., priority 2002, dated 2007)
